Laboratory results from ChEMBL document CHEMBL5505983, “Design, synthesis, and molecular modeling studies of novel 2-quinolone-1,2,3-triazole-α-aminophosphonates hybrids as dual antiviral and antibacterial agents” (Eur J Med Chem, 2024).
Values after ≈ are worked out from the molar mass of the structure shown.

What was measured:
[1] = test system: Human rhinovirus sp.; assay: Antiviral activity against Human rhinovirus A2 infected in human HeLa-RH cells assessed as inhibition of cytopathic effect by microscopy based analysis; assay type: functional, organism-based
[2] = Cytotoxicity against human Huh-7 cells; assay type: toxicity, cell-based
[3] = Selectivity index, ratio of CC50 for human Huh-7 cells to IC50 for Yellow fever virus infected in human Huh-7 cells; assay type: toxicity, cell-based; settings: read-out: Ratio CC50/IC50
[4] = Cytotoxicity against human HeLa-RH cells; assay type: toxicity, cell-based
[5] = test system: Enterococcus faecalis; assay: Ratio of MBC to MIC for Enterococcus faecalis; assay type: functional
[6] = Cytotoxicity against African green monkey Vero E6 cells; assay type: toxicity, cell-based, Vero C1008; settings: chlorocebus sabaeus
[7] = test system: Escherichia coli; assay: Bactericidal activity against Escherichia coli CIP 53154; assay type: functional
[8] = Cytotoxicity against African green monkey Vero A cells; assay type: toxicity, cell-based; settings: chlorocebus sabaeus
[9] = test system: Pseudomonas aeruginosa; assay: Bactericidal activity against Pseudomonas aeruginosa CIP A22; assay type: functional
[10] = test system: Staphylococcus aureus; assay: Antibacterial activity against Staphylococcus aureus CIP 54127 assessed as reduction in bacterial growth by micro-broth dilution method; assay type: functional
[11] = test system: Enterococcus faecalis; assay: Antibacterial activity against Enterococcus faecalis assessed as reduction in bacterial growth by micro-broth dilution method; assay type: functional
[12] = test system: Staphylococcus aureus; assay: Ratio of MBC to MIC for Staphylococcus aureus CIP 54127; assay type: functional
[13] = test system: Enterococcus faecalis; assay: Bactericidal activity against Enterococcus faecalis; assay type: functional
[14] = test system: Staphylococcus aureus; assay: Bactericidal activity against Staphylococcus aureus CIP 54127; assay type: functional
[15] = test system: Escherichia coli; assay: Antibacterial activity against Escherichia coli CIP 53154 assessed as reduction in bacterial growth by micro-broth dilution method; assay type: functional
[16] = test system: Pseudomonas aeruginosa; assay: Ratio of MBC to MIC for Pseudomonas aeruginosa CIP A22; assay type: functional
[17] = test system: Pseudomonas aeruginosa; assay: Antibacterial activity against Pseudomonas aeruginosa CIP A22 assessed as reduction in bacterial growth by micro-broth dilution method; assay type: functional
[18] = test system: Enterovirus A71; assay: Antiviral activity against human EV71 infected in human RD cells assessed as inhibition of cytopathic effect by microscopy based analysis; assay type: functional, organism-based; settings: Enterovirus A
[19] = test system: Chikungunya virus; assay: Antiviral activity against CHIKV infected in African green monkey Vero A cells assessed as inhibition of cytopathic effect by microscopy based analysis; assay type: functional, organism-based
[20] = test system: Yellow fever virus; assay: Antiviral activity against Yellow fever virus infected in human Huh-7 cells assessed as inhibition of cytopathic effect by microscopy based analysis; assay type: functional, organism-based
[21] = Selectivity index, ratio of CC50 for African green monkey Vero A cells to IC50 for CHIKV infected in African green monkey Vero A cells; assay type: toxicity; settings: read-out: Ratio CC50/IC50
[22] = Cytotoxicity against human RD cells; assay type: toxicity, cell-based
[23] = test system: Escherichia coli; assay: Ratio of MBC to MIC for Escherichia coli CIP 53154; assay type: functional
[24] = test system: Human rhinovirus sp.; assay: Antiviral activity against Human rhinovirus B14 infected in human HeLa-RH cells assessed as inhibition of cytopathic effect by microscopy based analysis; assay type: functional, organism-based
[25] = test system: Zika virus; assay: Antiviral activity against Zika virus infected in african green monkey Vero E6 cells assessed as inhibition of cytopathic effect by microscopy based analysis; assay type: functional, organism-based; settings: Vero C1008

| SMILES | IC50 [1] [µM] | CC50 [2] [µM] | CC50 [4] [µM] | Ratio [5] | CC50 [6] [µM] | MBC [7] [µM] | CC50 [8] [µM] | MBC [9] [µM] | MIC [10] [µM] | MIC [11] [µM] | Ratio [12] | MBC [13] [µM] | MBC [14] [µM] | MIC [15] [µM] | Ratio [16] | MIC [17] [µM] | IC50 [18] [µM] | IC50 [19] [µM] | IC50 [20] [µM] | CC50 [22] [µM] | further results |
| --- | --- | --- | --- | --- | --- | --- | --- | --- | --- | --- | --- | --- | --- | --- | --- | --- | --- | --- | --- | --- | --- |
| CCOP(=O)(OCC)C(Nc1ccccc1Br)c1cc(Cn2cc(Cn3c(=O)cc(C)c4cc(Br)ccc43)nn2)ccc1O (stereo not drawn) | > 0.41 | 27.9 | 18.4 | 1 | > 100 | 850 (≈ 634 µg/mL) | 10.1 | 420 (≈ 313 µg/mL) | 210 (≈ 157 µg/mL) | 50 (≈ 37.3 µg/mL) | 2 | 50 (≈ 37.3 µg/mL) | 420 (≈ 313 µg/mL) | 420 (≈ 313 µg/mL) | 1 | 420 (≈ 313 µg/mL) | > 100 | 57.3 | 10.4 | > 100 | selectivity ratio [3]: 2.68; selectivity ratio [21]: 0.18; Ratio [23]: 2.02; IC50 [24]: > 100 µM; IC50 [25]: > 100 µM |
| Cc1cc(=O)n(Cc2cn(Cc3ccc(O)c(C=O)c3)nn2)c2ccccc12 | > 1.23 | 37.5 | 11.4 | 1 | 57.5 | 830 (≈ 311 µg/mL) | > 100 | 26700 (≈ 10000 µg/mL) | 210 (≈ 78.6 µg/mL) | 110 (≈ 41.2 µg/mL) | 1 | 110 (≈ 41.2 µg/mL) | 210 (≈ 78.6 µg/mL) | 430 (≈ 161 µg/mL) | 2 | 26700 (≈ 10000 µg/mL) | > 33.3 | 95.7 | > 100 | 27.1 | selectivity ratio [21]: > 1.05; Ratio [23]: 1.93; IC50 [24]: > 100 µM; IC50 [25]: > 100 µM |
| CCOP(=O)(OCC)C(Nc1ccccc1Cl)c1cc(Cn2cc(Cn3c(=O)cc(C)c4cc(F)ccc43)nn2)ccc1O (stereo not drawn) | > 0.41 | 31 | 12.5 | 1 | 28.1 | 4030 (≈ 2580 µg/mL) | 7 | 4030 (≈ 2580 µg/mL) | 130 (≈ 83.2 µg/mL) | 30 (≈ 19.2 µg/mL) | 2 | 30 (≈ 19.2 µg/mL) | 260 (≈ 166 µg/mL) | 2020 (≈ 1290 µg/mL) | 1 | 4030 (≈ 2580 µg/mL) | > 100 | > 100 | 10.3 | > 100 | selectivity ratio [3]: 3.01; Ratio [23]: 2; IC50 [24]: > 100 µM; IC50 [25]: > 100 µM |
| CCOP(=O)(OCC)C(Nc1ccccc1OC)c1cc(Cn2cc(Cn3c(=O)cc(C)c4cc(Br)ccc43)nn2)ccc1O (stereo not drawn) | > 0.41 | 51.2 | > 33.3 | 1 | > 100 | 1790 (≈ 1250 µg/mL) | > 100 | 3590 (≈ 2500 µg/mL) | 230 (≈ 160 µg/mL) | 110 (≈ 76.6 µg/mL) | 1.96 | 110 (≈ 76.6 µg/mL) | 450 (≈ 313 µg/mL) | 900 (≈ 627 µg/mL) | 2.01 | 3590 (≈ 2500 µg/mL) | > 100 | 81.6 | > 100 | > 33.3 | selectivity ratio [21]: > 1.23; Ratio [23]: 1.99; IC50 [24]: > 100 µM; IC50 [25]: > 100 µM |
| CCOP(=O)(OCC)C(Nc1ccccc1)c1cc(Cn2cc(Cn3c(=O)cc(C)c4cc(F)ccc43)nn2)ccc1O (stereo not drawn) | > 1.23 | 46.2 | > 100 | 1 | > 33.3 | 1040 (≈ 630 µg/mL) | > 100 | 8260 (≈ 5000 µg/mL) | 510 (≈ 309 µg/mL) | 2060 (≈ 1250 µg/mL) | 2.04 | 2060 (≈ 1250 µg/mL) | 1040 (≈ 630 µg/mL) | 1040 (≈ 630 µg/mL) | 2 | 8260 (≈ 5000 µg/mL) | > 100 | > 100 | > 100 | > 100 | Ratio [23]: 1; IC50 [24]: > 100 µM; IC50 [25]: > 100 µM |
| CCOP(=O)(OCC)C(Nc1ccc(F)cc1)c1cc(Cn2cc(Cn3c(=O)cc(C)c4cc(Br)ccc43)nn2)ccc1O (stereo not drawn) | > 0.41 | 22.2 | 20.9 | 1 | > 33.3 | 920 (≈ 630 µg/mL) | 25.8 | 1830 (≈ 1250 µg/mL) | 450 (≈ 308 µg/mL) | 60 (≈ 41.1 µg/mL) | 1 | 60 (≈ 41.1 µg/mL) | 450 (≈ 308 µg/mL) | 920 (≈ 630 µg/mL) | 1 | 1830 (≈ 1250 µg/mL) | > 100 | 6.8 | > 100 | > 100 | selectivity ratio [21]: 3.79; Ratio [23]: 1; IC50 [24]: > 33.3 µM; IC50 [25]: > 100 µM |
| CCOP(=O)(OCC)C(Nc1ccccc1)c1cc(Cn2cc(Cn3c(=O)cc(C)c4ccccc43)nn2)ccc1O (stereo not drawn) | > 3.7 | 51.1 | > 100 | 1 | > 100 | 530 (≈ 311 µg/mL) | > 100 | 2130 (≈ 1250 µg/mL) | 530 (≈ 311 µg/mL) | 270 (≈ 159 µg/mL) | 2.02 | 270 (≈ 159 µg/mL) | 1070 (≈ 629 µg/mL) | 270 (≈ 159 µg/mL) | 1 | 2130 (≈ 1250 µg/mL) | > 100 | 56.9 | > 100 | > 100 | selectivity ratio [21]: > 1.76; Ratio [23]: 1.96; IC50 [24]: > 100 µM; IC50 [25]: > 100 µM |
| CCOP(=O)(OCC)C(Nc1ccccc1Cl)c1cc(Cn2cc(Cn3c(=O)cc(C)c4ccccc43)nn2)ccc1O (stereo not drawn) | > 1.23 | 30.5 | 52.1 | 1 | > 33.3 | 260 (≈ 162 µg/mL) | 24.3 | 1010 (≈ 628 µg/mL) | 500 (≈ 311 µg/mL) | 60 (≈ 37.3 µg/mL) | 1 | 60 (≈ 37.3 µg/mL) | 500 (≈ 311 µg/mL) | 260 (≈ 162 µg/mL) | 1 | 1010 (≈ 628 µg/mL) | > 100 | > 33.3 | > 100 | > 100 | Ratio [23]: 1; IC50 [24]: > 100 µM; IC50 [25]: > 100 µM |
| CCOP(=O)(OCC)C(Nc1ccccc1OC)c1cc(Cn2cc(Cn3c(=O)cc(C)c4ccccc43)nn2)ccc1O (stereo not drawn) | > 1.23 | 51.8 | > 33.3 | 1 | > 33.3 | 1020 (≈ 630 µg/mL) | 77.2 | 1020 (≈ 630 µg/mL) | 260 (≈ 161 µg/mL) | 2020 (≈ 1250 µg/mL) | 1.92 | 2020 (≈ 1250 µg/mL) | 500 (≈ 309 µg/mL) | 500 (≈ 309 µg/mL) | 1 | 1020 (≈ 630 µg/mL) | > 100 | > 100 | > 100 | > 100 | Ratio [23]: 2.04; IC50 [24]: > 100 µM; IC50 [25]: > 100 µM |
| CCOP(=O)(OCC)C(Nc1ccc(F)cc1)c1cc(Cn2cc(Cn3c(=O)cc(C)c4ccccc43)nn2)ccc1O (stereo not drawn) | > 3.7 | 31.4 | 83.8 | 1 | > 100 | 1040 (≈ 630 µg/mL) | 75.2 | 2060 (≈ 1250 µg/mL) | 260 (≈ 157 µg/mL) | 70 (≈ 42.4 µg/mL) | 1.96 | 70 (≈ 42.4 µg/mL) | 510 (≈ 309 µg/mL) | 510 (≈ 309 µg/mL) | 1.98 | 2060 (≈ 1250 µg/mL) | > 100 | 26.6 | > 100 | 75.8 | selectivity ratio [21]: 2.83; Ratio [23]: 2.04; IC50 [24]: > 100 µM; IC50 [25]: > 100 µM |
